# How the values were obtained:
# [1] = Dynamic Vapor Sorption (DVS), moisture sorption/desorption isotherms at 25° C.; type: physicochemical
# Procedure: Moisture sorption/desorption isotherms were recorded on a SPS11-10μ from Projekt Messtechnik (Ulm, Germany). One cycle was run at 25° C., in which the sample was first stepwise decreased to 0% Room humidity (RH) and then the relative humidity was stepwise increased from 0 to 95% and the weight of the sample was measured. Typical total measurement times for both cycles were about 20 to 30 hours.
# [2] = Chiral stability: solid stored at 40° C. and 75% RH, enantiomeric excess by chiral HPLC; conditions: for Enantiomeric excess: storage condition (B): solid, 40° C. and 75% RH, 4 weeks; for chemical / chiral stability (in words): elevated temperature and humidity, storage 40° C. and 75% RH, sodium salt dihydrate
# Procedure: Enantiomeric excess was determined by chiral HPLC on a HPLC system containing a Quaternary HPLC pump (e.g. HP 1100), an auto sampler, an UV absorbance detector (e.g. DAD Agilent Technologies or other adequate HPLC-System) and a computer data acquisition system with suitable software (e.g. Dionex-Chromeleon). A Chirobiotic R, Supelco (Astec) (4.6×250 mm; 5 μm) column was used as stationary phase and a solution of 800 mL water, 1200 mL acetonitrile and 1.0 g ammoniumacetate was used as mobile phase. The flow rate was set to a value of 1.5 mL/minute and the oven temperature was set to 45° C. Detection was performed by absorbance of the compounds at 236 nm (UV) (bandwidth: 8 nm) and reference wavelength was set to 450 nm (bandwidth: 50 nm). Typical total run times were in the range of about 15 minutes. For sample preparation 50 mg of the substance were accurately weighed into a 10 mL volumetric flask and dissolved and diluted to volume with solvent (acetonitrile/water 50:50). For the HPLC analysis 5 μL of the sample were injected into the system.
# Gradient used: Isograt (15 minutes 100% mobile phase A)
Structure (SMILES),"hygroscopicity, absorption or adsorption of water from the surrounding environment (in words) [1]",Enantiomeric excess [2] [%],Enantiomeric excess ([2]; listed as (R)-3-[6-amino-pyridin-3-yl]-2-(1-cyclohexyl-1H-imidazol-4-yl)-propionic acid) [%],"sorption and desorption isotherms (in words) ([1]; DVS 25° C., between 30% relative humidity and 0.4% relative humidity)",chemical / chiral stability (in words) ([2]; listed as sodium salt of (R)-3-[6-amino-pyridin-3-yl]-2-(1-cyclohexyl-1H-imidazol-4-yl)-pr),chemical / chiral stability (in words) [2]
Nc1ccc(CC(C(=O)O)c2cn(C3CCCCC3)cn2)cn1 (stereo not shown) [3-[6-amino-pyridin-3-yl]-2-(1-cyclohexyl-1H-imidazol-4-yl)-propionic acid],hygroscopic,,,,,
"Nc1ccc(C[C@@H](C(=O)O)c2cn(C3CCCCC3)cn2)cn1 [Example 1, (R)-3-[6-amino-pyridin-3-yl]-2-(1-cyclohexyl-1H-imidazol-4-yl)-propionic acid]",,91.6,91.6,,,
"Nc1ccc(C[C@@H](C(=O)[O-])c2cn(C3CCCCC3)cn2)cn1.[Na+] [Example 3, (R)-3-[6-amino-pyridin-3-yl]-2-(1-cyclohexyl-1H-imidazol-4-yl)-propionic acid sodium salt dihydrate]",favorable reduced absorption or adsorption of water molecules,,,almost the same (low water uptake or water desorption),chemically stable,remain stable
